Reference: US10722515B2, “Dual CLK/CDK1 inhibitors for cancer treatment” (SRI INTERNATIONAL, priority 2016, dated 2020)

How the values were obtained:
MEK1(h) = target: T1, MEK1(h) (Homo sapiens, UniProt Q02750); assay: kinase profile, radiometric assay, MEK1; format: biochemical
T1 construct: purchased Eurofins, Dundee, Scotland
Procedure: (§1) Enzymatic biochemical activities were evaluated in radiometric protein kinase assays (Eurofins, Dundee, Scotland). Kinases are incubated with buffer, substrate and [γ-^33P]-ATP (specific activity approx. 500 cpm/pmol, concentration as required). The reaction is initiated by the addition of the MgATP mix. After incubation for 40 minutes at room temperature, the reaction is stopped by the addition of 3% phosphoric acid solution. 10 μL of the reaction is then spotted onto a P30 filtermat and washed three times for 5 minutes in 75 mM phosphoric acid and once in methanol prior to drying and scintillation counting.
(§2) All compounds are prepared to 50× final assay concentration in 100% DMSO. Positive control wells contain all components of the reaction with 2% DMSO. Blank wells contain all components of the reaction, with a reference inhibitor replacing the compound of interest. Each kinase is assigned a standard assay concentration of ATP within 20 μM of its apparent KM. Compounds were screened at 1 μM in duplicate or tested at 10 concentrations at half log dilution starting from 10 μM in singlicate. Dose response curves were fitted with four parameter logistic curve to obtain IC50 values. The average coefficient of variation (CV) of the conducted assay is 4.4%.

CLK4(h) = target: T2, CLK4(h) (Homo sapiens, UniProt Q9HAZ1); assay: radiometric protein kinase assay, CLK4; format: biochemical; details: enzyme inhibition, ATP 10 μM
T2 construct: purchased Eurofins, Dundee, Scotland
Procedure: as §1, §2

ErbB2(h) = target: T3, ErbB2(h) (Homo sapiens, UniProt P04626); assay: kinase profile, radiometric assay, ErbB2; format: biochemical
T3 construct: purchased Eurofins, Dundee, Scotland
Procedure: as §1, §2

JAK3(h) = target: T4, JAK3(h) (Homo sapiens, UniProt P52333); assay: kinase profile, radiometric assay, JAK3; format: biochemical
T4 construct: purchased Eurofins, Dundee, Scotland
T4 sequence (P52333 1-1124): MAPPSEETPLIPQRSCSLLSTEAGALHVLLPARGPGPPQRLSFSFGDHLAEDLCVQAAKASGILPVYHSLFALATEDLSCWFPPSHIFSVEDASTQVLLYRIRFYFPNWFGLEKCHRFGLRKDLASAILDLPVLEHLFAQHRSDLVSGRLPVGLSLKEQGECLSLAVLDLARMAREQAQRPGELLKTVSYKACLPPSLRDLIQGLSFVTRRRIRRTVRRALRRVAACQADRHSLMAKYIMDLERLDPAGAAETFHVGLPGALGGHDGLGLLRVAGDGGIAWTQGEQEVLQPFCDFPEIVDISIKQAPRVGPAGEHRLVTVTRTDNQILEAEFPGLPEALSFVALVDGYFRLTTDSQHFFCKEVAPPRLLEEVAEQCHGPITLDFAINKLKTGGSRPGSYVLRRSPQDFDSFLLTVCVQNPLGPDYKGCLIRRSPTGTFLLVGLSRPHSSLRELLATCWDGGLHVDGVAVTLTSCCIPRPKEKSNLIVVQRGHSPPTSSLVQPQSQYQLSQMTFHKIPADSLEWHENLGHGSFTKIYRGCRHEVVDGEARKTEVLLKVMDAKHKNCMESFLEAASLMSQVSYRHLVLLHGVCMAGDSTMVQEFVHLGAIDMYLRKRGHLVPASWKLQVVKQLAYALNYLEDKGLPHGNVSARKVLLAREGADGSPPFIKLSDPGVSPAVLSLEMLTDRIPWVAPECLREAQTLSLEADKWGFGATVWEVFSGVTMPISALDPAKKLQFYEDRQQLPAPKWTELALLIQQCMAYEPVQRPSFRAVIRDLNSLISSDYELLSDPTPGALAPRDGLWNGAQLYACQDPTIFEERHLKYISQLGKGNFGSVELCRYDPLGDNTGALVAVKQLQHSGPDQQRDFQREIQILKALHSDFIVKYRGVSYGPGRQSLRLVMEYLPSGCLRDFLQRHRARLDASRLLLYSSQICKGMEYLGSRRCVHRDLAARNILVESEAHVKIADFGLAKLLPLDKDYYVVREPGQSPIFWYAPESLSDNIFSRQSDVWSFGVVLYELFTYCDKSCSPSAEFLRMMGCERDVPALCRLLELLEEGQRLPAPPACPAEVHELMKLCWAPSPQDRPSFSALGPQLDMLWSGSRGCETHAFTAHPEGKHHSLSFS
Procedure: as §1, §2

B-Raf(h) = target: T5, B-Raf(h) (Homo sapiens, UniProt P15056); assay: kinase profile, radiometric assay, B-Raf; format: biochemical
T5 construct: purchased Eurofins, Dundee, Scotland
Procedure: as §1, §2

JNK1α1(h) = target: T6, JNK1α1(h) (Homo sapiens, UniProt P45983); assay: kinase profile, radiometric assay, JNK1α1; format: biochemical
T6 construct: purchased Eurofins, Dundee, Scotland
Procedure: as §1, §2

ALK(h) = target: T7, ALK(h) (Homo sapiens, UniProt Q9UM73); assay: kinase profile, radiometric assay, ALK; format: biochemical
T7 construct: purchased Eurofins, Dundee, Scotland
Procedure: as §1, §2

Abl(h) = target: T8, Abl(h) (Homo sapiens, UniProt P00519); assay: kinase profile, radiometric assay, Abl; format: biochemical
T8 construct: purchased Eurofins, Dundee, Scotland
Procedure: as §1, §2

EGFR(h) = target: T9, EGFR(h) (Homo sapiens, UniProt P00533); assay: kinase profile, radiometric assay, EGFR; format: biochemical
T9 construct: purchased Eurofins, Dundee, Scotland
Procedure: as §1, §2

[1] = test system: PI3 Kinase (p110β/p85α)(h); assay: kinase profile, non-radiometric HTRF assay, PI3 kinases; format: biochemical, human; details: at 1 μM
CLK1(h) = target: T10, CLK1(h) (Homo sapiens, UniProt P49759); assay: radiometric protein kinase assay, CLK1; format: biochemical; details: enzyme inhibition, radiometric, ATP 10 μM; read-out: IC50 (nM) CLK1
T10 construct: purchased Eurofins, Dundee, Scotland
Procedure: as §1, §2

Plk1(h) = target: T11, Plk1(h) (Homo sapiens, UniProt P53350); assay: kinase profile, radiometric assay, Plk1; format: biochemical
T11 construct: purchased Eurofins, Dundee, Scotland
Procedure: as §1, §2

[2] = first of three lines printed with this name (r24)
[3] = second of three lines with this name
[4] = third of three lines printed with this name (r26)

T9 sequence (P00533 25-1210): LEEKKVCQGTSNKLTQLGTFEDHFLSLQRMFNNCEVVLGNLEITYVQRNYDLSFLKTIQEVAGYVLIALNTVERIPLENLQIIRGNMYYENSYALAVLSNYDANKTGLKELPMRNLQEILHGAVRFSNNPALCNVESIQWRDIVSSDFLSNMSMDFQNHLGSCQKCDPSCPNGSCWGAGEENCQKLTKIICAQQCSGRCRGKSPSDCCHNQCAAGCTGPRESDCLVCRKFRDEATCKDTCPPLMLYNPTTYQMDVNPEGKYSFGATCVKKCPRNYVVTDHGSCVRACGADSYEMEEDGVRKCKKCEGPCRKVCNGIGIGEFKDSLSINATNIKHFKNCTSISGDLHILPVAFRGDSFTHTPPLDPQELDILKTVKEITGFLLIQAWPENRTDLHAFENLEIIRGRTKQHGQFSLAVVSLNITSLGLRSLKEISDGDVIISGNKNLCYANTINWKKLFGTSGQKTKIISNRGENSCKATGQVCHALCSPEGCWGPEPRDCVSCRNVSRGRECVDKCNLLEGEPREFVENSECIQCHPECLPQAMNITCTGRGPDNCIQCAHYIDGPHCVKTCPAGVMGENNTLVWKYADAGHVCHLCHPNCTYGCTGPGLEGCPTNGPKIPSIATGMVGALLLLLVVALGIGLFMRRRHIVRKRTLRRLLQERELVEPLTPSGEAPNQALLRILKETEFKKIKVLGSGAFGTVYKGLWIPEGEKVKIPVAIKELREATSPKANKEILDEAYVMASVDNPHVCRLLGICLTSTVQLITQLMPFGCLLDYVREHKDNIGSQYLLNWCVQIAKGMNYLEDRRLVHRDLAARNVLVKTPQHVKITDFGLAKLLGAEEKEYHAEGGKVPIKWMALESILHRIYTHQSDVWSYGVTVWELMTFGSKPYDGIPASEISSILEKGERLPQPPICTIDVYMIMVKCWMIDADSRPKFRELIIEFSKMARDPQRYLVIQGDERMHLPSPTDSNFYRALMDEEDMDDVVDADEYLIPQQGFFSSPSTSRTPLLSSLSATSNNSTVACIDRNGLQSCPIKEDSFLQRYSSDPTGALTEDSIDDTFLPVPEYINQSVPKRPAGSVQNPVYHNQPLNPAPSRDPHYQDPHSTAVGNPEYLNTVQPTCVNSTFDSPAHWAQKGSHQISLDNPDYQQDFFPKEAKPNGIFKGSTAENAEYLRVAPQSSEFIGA
T8 sequence (P00519 whole entry): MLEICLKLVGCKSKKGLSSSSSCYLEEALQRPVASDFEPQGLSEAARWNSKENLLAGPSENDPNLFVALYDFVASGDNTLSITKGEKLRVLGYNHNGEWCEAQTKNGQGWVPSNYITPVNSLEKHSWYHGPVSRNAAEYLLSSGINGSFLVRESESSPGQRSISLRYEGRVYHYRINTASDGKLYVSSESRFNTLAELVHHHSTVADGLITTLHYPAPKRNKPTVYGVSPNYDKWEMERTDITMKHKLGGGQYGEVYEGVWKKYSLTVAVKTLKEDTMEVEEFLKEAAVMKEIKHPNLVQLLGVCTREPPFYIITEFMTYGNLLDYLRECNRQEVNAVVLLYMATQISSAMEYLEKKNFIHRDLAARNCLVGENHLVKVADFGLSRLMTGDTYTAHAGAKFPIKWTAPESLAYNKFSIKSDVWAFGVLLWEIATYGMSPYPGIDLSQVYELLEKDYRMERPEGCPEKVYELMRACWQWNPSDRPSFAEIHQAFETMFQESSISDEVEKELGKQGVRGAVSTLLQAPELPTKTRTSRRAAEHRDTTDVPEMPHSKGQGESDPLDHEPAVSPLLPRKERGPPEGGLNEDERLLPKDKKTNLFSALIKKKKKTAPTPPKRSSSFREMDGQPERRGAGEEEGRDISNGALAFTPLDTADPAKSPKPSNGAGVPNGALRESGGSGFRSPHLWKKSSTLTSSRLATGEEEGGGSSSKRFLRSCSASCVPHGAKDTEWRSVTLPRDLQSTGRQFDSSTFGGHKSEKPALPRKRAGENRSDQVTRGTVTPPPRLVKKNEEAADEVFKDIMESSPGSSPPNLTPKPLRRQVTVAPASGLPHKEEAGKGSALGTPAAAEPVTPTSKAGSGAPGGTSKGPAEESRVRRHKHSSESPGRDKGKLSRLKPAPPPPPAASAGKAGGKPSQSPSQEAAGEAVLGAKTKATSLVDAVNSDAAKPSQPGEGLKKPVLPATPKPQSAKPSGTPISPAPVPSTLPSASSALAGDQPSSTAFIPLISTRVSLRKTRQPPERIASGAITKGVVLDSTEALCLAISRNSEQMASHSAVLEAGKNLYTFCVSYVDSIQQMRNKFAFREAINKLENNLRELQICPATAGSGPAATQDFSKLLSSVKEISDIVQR
T5 sequence (P15056 whole entry): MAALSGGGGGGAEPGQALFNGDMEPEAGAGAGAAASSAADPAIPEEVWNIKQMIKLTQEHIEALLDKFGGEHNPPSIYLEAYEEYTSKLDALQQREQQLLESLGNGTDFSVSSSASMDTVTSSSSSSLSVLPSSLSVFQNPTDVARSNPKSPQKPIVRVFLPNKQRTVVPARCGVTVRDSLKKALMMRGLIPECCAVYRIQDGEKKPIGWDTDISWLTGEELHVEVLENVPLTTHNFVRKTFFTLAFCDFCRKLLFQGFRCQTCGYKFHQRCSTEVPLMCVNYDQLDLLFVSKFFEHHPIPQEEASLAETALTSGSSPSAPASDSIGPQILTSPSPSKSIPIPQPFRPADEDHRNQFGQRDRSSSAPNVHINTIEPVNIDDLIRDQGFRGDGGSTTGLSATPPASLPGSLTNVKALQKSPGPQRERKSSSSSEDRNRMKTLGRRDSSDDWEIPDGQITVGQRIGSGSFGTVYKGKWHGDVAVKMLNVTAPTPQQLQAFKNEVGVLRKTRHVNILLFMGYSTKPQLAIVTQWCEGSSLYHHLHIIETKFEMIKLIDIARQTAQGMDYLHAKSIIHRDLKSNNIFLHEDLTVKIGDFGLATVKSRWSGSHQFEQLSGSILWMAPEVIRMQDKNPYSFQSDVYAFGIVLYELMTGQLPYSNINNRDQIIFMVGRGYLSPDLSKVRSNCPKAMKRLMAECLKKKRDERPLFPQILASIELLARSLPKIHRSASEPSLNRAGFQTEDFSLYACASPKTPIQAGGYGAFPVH
T6 sequence (P45983 1-384 isoform P45983-2): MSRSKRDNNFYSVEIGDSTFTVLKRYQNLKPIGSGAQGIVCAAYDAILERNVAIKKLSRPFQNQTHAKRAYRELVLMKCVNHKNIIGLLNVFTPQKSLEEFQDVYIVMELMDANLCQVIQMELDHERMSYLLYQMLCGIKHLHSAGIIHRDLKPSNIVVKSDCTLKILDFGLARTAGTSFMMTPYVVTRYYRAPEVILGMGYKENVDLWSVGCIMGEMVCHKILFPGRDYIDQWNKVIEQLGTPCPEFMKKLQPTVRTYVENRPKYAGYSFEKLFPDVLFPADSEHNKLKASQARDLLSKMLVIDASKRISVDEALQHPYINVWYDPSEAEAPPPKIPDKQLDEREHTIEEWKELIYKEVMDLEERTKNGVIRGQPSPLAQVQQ
T7 sequence (Q9UM73 19-1620): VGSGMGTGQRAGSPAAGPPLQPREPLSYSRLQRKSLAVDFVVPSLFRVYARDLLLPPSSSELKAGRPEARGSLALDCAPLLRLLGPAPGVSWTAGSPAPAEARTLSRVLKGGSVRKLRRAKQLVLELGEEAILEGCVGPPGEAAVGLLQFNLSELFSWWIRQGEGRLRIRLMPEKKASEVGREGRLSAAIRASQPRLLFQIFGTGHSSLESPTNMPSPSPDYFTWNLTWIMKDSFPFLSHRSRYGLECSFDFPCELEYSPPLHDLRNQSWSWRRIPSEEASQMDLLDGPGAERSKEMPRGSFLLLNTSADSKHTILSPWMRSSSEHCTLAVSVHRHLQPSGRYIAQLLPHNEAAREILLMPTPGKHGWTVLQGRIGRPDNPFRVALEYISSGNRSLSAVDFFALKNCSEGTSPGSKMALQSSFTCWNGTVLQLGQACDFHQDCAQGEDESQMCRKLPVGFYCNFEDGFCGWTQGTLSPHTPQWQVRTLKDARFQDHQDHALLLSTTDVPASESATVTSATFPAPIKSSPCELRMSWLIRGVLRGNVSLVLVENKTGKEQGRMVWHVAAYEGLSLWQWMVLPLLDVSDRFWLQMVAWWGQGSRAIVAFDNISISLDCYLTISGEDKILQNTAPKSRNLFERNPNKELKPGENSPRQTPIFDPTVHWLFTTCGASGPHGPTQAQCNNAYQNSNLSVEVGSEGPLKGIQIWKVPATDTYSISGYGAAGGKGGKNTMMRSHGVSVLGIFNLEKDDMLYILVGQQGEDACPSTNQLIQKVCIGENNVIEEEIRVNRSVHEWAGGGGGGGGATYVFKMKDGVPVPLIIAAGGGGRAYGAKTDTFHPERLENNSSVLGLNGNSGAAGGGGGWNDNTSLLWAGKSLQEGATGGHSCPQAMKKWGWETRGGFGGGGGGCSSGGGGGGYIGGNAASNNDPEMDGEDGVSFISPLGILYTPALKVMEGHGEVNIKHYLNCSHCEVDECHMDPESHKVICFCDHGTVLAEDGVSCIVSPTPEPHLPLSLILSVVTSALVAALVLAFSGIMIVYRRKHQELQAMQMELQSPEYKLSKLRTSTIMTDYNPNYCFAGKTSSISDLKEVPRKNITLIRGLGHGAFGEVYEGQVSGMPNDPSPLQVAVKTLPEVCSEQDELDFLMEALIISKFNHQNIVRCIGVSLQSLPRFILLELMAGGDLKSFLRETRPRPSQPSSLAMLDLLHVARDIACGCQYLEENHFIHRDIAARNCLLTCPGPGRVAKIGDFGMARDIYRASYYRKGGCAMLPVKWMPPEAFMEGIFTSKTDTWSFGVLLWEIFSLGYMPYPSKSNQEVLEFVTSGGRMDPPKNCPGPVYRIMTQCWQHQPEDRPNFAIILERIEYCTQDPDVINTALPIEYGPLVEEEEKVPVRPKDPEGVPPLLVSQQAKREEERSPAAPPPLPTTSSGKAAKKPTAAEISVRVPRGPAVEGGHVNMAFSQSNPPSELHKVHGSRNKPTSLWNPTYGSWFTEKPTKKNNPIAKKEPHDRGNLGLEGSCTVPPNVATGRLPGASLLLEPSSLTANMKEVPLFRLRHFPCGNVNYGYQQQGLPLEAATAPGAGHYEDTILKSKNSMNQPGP

Row | SMILES | inhibition at 1 µM (MEK1(h)) | IC50 (CLK4(h)) | inhibition at 1 µM (ErbB2(h)) | inhibition at 1 µM (JAK3(h)) | inhibition at 1 µM (B-Raf(h)) | inhibition at 1 µM (JNK1α1(h)) | inhibition at 1 µM (ALK(h)) | inhibition at 1 µM (Abl(h)) | inhibition at 1 µM (EGFR(h)) | % Inhibition PI3 Kinase (p110β/p85α)(h) [1, 2] | % Inhibition PI3 Kinase (p110β/p85α)(h) [1, 3] | % Inhibition PI3 Kinase (p110β/p85α)(h) [1, 4] | IC50 (CLK1(h)) | inhibition at 1 µM (Plk1(h))
1 | CC(C)n1cnc2c(Nc3cc(N)cc(Cl)c3)nc(NC3CCCCC3N)nc21 (racemic) [Compound 14, Racemic N^6-Cis-(3-Amino-5-Chlorophenyl)-N^2-(2-Aminocyclohexyl)-9-Isopropyl-9H-Purine-2,6-Diamine] | 6% | 54 nM | 3% | 0% | 5% | -6% | 10% | 8% | -1% | 4% | 0% | 1% | 18 nM | 60%
2 | CC(C)n1cnc2c(Nc3cccc(Cl)c3)nc(N[C@H]3CCCC[C@@H]3N)nc21 [Compound 8, N^2-((1S,2S)-2-Aminocyclohexyl)-V-(3-Chlorophenyl)-9-Isopropyl-9H-Purine-2,6-Diamine] | 10% | 86 nM | 2% | 0% | 10% | 3% | 7% | -2% | -6% | 5% | 2% | 2% | 78 nM | 49%
3 | CC(C)n1cnc2c(Nc3cccc(Cl)c3)nc(N[C@@H]3CCCC[C@@H]3N)nc21 [Compound 9, N^2-((1R,2S)-2-Aminocyclohexyl)-N^6-(3-Chlorophenyl)-9-Isopropyl-9H-Purine-2,6-Diamine] | 8% | 50 nM | 0% | 4% | 21% | -1% | -2% | 2% | 3% | 4% | 3% | 5% | 38 nM | 9%
